In the test the target is HPK1 (Homo sapiens (Human), UniProt Q92918). The test can be described thus: HPK1 Lantha binding assay ("Lanth"). Particulars: binding assays; Morrison Ki fit. As for the experimental part:
Example B2: HPK1 Lantha Binding Assay (“Lanth”)
Procedure: I. Compound Dilution:
The compounds to be tested were diluted by preparing 12.5 uL/well of 5 mM compound (100×) in columns 2 and 13 and 10 ul/well of DMSO in columns 3-12, 14-23, and wells A1-H1 and I24-P24 of the compound plate using a Bravo liquid handling platform. For the reference compound, the top concentration was 1 mM. To the plate was added 10 ul 2 mM staurosporine in wells J1-P1 and A24-H24. A 11 point 5-fold compound serial dilution was performed using the Bravo liquid handling platform. From the plate were transferred 2.5 ul of the solutions from column 2 and column 13 to the 10 ul of DMSO in columns 3 and 14 & so on. The compound plate was centrifuged at 2500 rpm for 1 min. From the compound plate was transferred 80 nl of the compounds into an assay plate using the Echo liquid handler system. One compound plate makes two assay plates. Each assay plate is sealed and stored in an N2 cabinet.
The following assay concentrations and times were used: 2 nM HPK1, 2 nM Eu-Anti-GST Ab, and 15 nM Tracer222, with 60 min incubation time.
III. HPK Lantha Binding Assay:
For the binding assay, 4 ul 2×HPK1 and Eu-anti-GST antibody were added to each well of the assay plate using a Multidrop reagent dispenser. The solutions were incubated in a 23 C incubator for 1 h. To each well of the assay plate was added 4 ul 2× Tracer-222 using a Multidrop reagent dispenser. The solutions were again incubated in a 23 C incubator for 1 h. The results of the assay were read using an Envision plate reader with the following parameters: TR_FRET, 340 ex/615 and 665em; 100 usec Delay; and 200 usec integration.
Compound Ki was analyzed using Morrison ki fit model in XL-fit • a. fit=(1−((((E+x)+(Ki*(1+(S/Kd))))−(((((E+x)+(Ki*(1+(S/Kd))))^2)−((4*E)*x))^0.5))/(2*E))) • res=(y−fit) • b. Parameters: • E=enzyme concentration • S=Tracer222 concentration, Kd=Tracer222 Kd • All measurements reported using the same units (uM)
Exemplary compounds were tested in the binding assays.

The values below come from US12208088B2 (Genentech, Inc., priority 2018, dated 2025).

Sequence of HPK1 (Q92918 1-346 limits assumed): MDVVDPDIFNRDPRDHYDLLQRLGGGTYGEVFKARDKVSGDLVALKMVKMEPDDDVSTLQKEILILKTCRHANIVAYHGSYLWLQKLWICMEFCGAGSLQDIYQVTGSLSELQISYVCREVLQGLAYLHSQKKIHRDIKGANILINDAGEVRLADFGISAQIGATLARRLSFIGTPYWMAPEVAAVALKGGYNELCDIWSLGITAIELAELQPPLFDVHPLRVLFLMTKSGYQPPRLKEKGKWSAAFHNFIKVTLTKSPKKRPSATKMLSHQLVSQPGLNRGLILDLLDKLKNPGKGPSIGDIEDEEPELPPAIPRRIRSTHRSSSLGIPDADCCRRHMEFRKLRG

By Ki is commonly meant a dissociation constant, usually derived from enzyme kinetics or from competition with a known ligand. “1-(3-(1′,2′-Dihydrospiro[cyclopropane-1,3′-pyrrolo[2,3-b]pyridin]-5′-yl)phenyl)piperazin-2-one [Compound 41]”: the Ki worked out at 103 nM.
The same measure for `O=C1NCCC1c1nc2ccc(-c3cnc4c(c3Cl)C3(CC3)CN4)cc2[nH]1` (racemic) [Compound 283, (±)-3-(6-(4′-Chloro-1′,2′-dihydrospiro[cyclopropane-1,3′-pyrrolo[2,3-b]pyridin]-5′-yl)-1H-benzo[d]imidazol-2-yl)pyrrolidin-2-one]: 74.2 nM; for `CO[C@@H]1CC[C@@]2(CNc3ncc(-c4ccc(N)c(C(=O)N(C)C)c4F)c(Cl)c32)C1` (relative stereo) [Compound 81a, 6-Amino-3-((1R,3R)-4′-chloro-3-methoxy-1′,2′-dihydrospiro[cyclopentane-1,3′-pyrrolo[2,3-b]pyridin]-5′-yl)-2-fluoro-N,N-dimethylbenzamide]: 39.6 nM; for `CO[C@H]1CC[C@@]2(CNc3ncc(-c4ccc(N)c(C(=O)N(C)C)c4F)c(Cl)c32)C1` (relative stereo) [Compound 81c, 6-Amino-3-((1R,3S)-4′-chloro-3-methoxy-1′,2′-dihydrospiro[cyclopentane-1,3′-pyrrolo[2,3-b]pyridin]-5′-yl)-2-fluoro-N,N-dimethylbenzamide]: 17.7 nM.
The same measure for `CN(C)C(=O)c1c(N)ccc(-c2cnc3c(c2Cl)[C@]2(CC[C@](C)(O)C2)CN3)c1F` (relative stereo) [Compound 82a, 6-Amino-3-((1R,3S)-4′-chloro-3-hydroxy-3-methyl-1′,2′-dihydrospiro[cyclopentane-1,3′-pyrrolo[2,3-b]pyridin]-5′-yl)-2-fluoro-N,N-dimethylbenzamide]: 8.12 nM; for `CN(C)C(=O)c1c(N)ccc(-c2cnc3c(c2Cl)[C@]2(CC[C@@H](C(N)=O)C2)CN3)c1F` (relative stereo) [Compound 84a, (1R,3R)-5′-(4-amino-3-(dimethylcarbamoyl)-2-fluorophenyl)-4′-chloro-1′,2′-dihydrospiro[cyclopentane-1,3′-pyrrolo[2,3-b]pyridine]-3-carboxamide]: 25.9 nM; for `CN(C)C(=O)c1c(N)ccc(-c2cnc3c(c2Cl)[C@]2(CC[C@H](C(N)=O)C2)CN3)c1F` (relative stereo) [Compound 84c, (1R,3S)-5′-(4-amino-3-(dimethylcarbamoyl)-2-fluorophenyl)-4′-chloro-1′,2′-dihydrospiro[cyclopentane-1,3′-pyrrolo[2,3-b]pyridine]-3-carboxamide]: 2.07 nM.
The same measure for `C[C@H]1C[C@@]12CNc1ncc(-c3ccc(N)c(C(=O)N(C)C)c3F)cc12` (relative stereo) [Compound 86a, 6-Amino-2-fluoro-N,N-dimethyl-3-((1R,2S)-2-methyl-1′,2′-dihydrospiro[cyclopropane-1,3′-pyrrolo[2,3-b]pyridin]-5′-yl)benzamide]: 7.9 nM; for `CN(C)C(=O)c1c(N)ccc(-c2cnc3c(c2Cl)[C@]2(CC[C@H](n4nccn4)C2)CN3)c1F` (relative stereo) [Compound 89a, 6-Amino-3-((1R,3S)-4′-chloro-3-(2H-1,2,3-triazol-2-yl)-1′,2′-dihydrospiro[cyclopentane-1,3′-pyrrolo[2,3-b]pyridin]-5′-yl)-2-fluoro-N,N-dimethylbenzamide]: 6 nM.
`CN(C)C(=O)c1c(N)ccc(-c2cnc3c(c2Cl)[C@]2(CC[C@H](C#N)C2)CN3)c1F` (relative stereo) [Compound 91a, 6-Amino-3-((1R,3S)-4′-chloro-3-cyano-1′,2′-dihydrospiro[cyclopentane-1,3′-pyrrolo[2,3-b]pyridin]-5′-yl)-2-fluoro-N,N-dimethylbenzamide] returned a Ki of 5.53 nM.
Molecule `CNC(=O)[C@H]1CC[C@@]2(CNc3ncc(-c4ccc(N)c(C(=O)N(C)C)c4F)c(Cl)c32)C1` (relative stereo) [Compound 98a, (1R,3S)-5′-(4-Amino-3-(dimethylcarbamoyl)-2-fluorophenyl)-4′-chloro-N-methyl-1′,2′-dihydrospiro[cyclopentane-1,3′-pyrrolo[2,3-b]pyridine]-3-carboxamide] showed a Ki of 75.6 nM. This Ki lies about 14-fold higher than the previous one.
